# Measurements taken from PubChem BioAssay (NCI).
#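 1) Cells in 96-well plates. 2) Compound, 48 h, 5 concentrations. 3) Linear interpolation between surrounding doses. 4) Unreached endpoint = highest concentration. TGI: total growth inhibition.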
# Legend:
# Experiment in all cases: inhibition of tumour cell growth, NCI panel, 48 h
# A549 NSCLC = tested on: A549 NSCLC
# SW-620 colon = tested on: SW-620 colon
# DMS 273 small cell lung = tested on: DMS 273 small cell lung
# SK-MEL-28 melanoma = tested on: SK-MEL-28 melanoma
# RXF-631 renal = tested on: RXF-631 renal
# KM12 colon = tested on: KM12 colon
# M14 melanoma = tested on: M14 melanoma
# SR leukemia = tested on: SR leukemia
# SF-295 CNS = tested on: SF-295 CNS
# CAKI-1 renal = tested on: CAKI-1 renal
# HOP-62 NSCLC = tested on: HOP-62 NSCLC
# ACHN renal = tested on: ACHN renal
# OVCAR-3 ovarian = tested on: OVCAR-3 ovarian
# UACC-62 melanoma = tested on: UACC-62 melanoma
# M19-MEL melanoma = tested on: M19-MEL melanoma
# RPMI-8226 leukemia = tested on: RPMI-8226 leukemia
# OVCAR-5 ovarian = tested on: OVCAR-5 ovarian
# HCC-2998 colon = tested on: HCC-2998 colon
# OVCAR-8 ovarian = tested on: OVCAR-8 ovarian
# 786-0 renal = tested on: 786-0 renal
# SK-OV-3 ovarian = tested on: SK-OV-3 ovarian
# SNB-19 CNS = tested on: SNB-19 CNS
# U251 CNS = tested on: U251 CNS
# KM20L2 colon = tested on: KM20L2 colon
# HOP-18 NSCLC = tested on: HOP-18 NSCLC
# IGROV1 ovarian = tested on: IGROV1 ovarian
# UACC-257 melanoma = tested on: UACC-257 melanoma
# SNB-75 CNS = tested on: SNB-75 CNS
# EKVX NSCLC = tested on: EKVX NSCLC
# HT29 colon = tested on: HT29 colon
# NCI-H23 lung = tested on: NCI-H23 lung
# HOP-92 NSCLC = tested on: HOP-92 NSCLC
# RXF 393 renal = tested on: RXF 393 renal
# LXFL 529 NSCLC = tested on: LXFL 529 NSCLC
# NCI-H226 lung = tested on: NCI-H226 lung
# SNB-78 CNS = tested on: SNB-78 CNS
# SF-268 CNS = tested on: SF-268 CNS
# NCI-H460 lung = tested on: NCI-H460 lung
# SK-MEL-2 melanoma = tested on: SK-MEL-2 melanoma
# HCT-116 colon = tested on: HCT-116 colon
# OVCAR-4 ovarian = tested on: OVCAR-4 ovarian
# DLD-1 colon = tested on: DLD-1 colon
# UO-31 renal = tested on: UO-31 renal
# MALME-3M melanoma = tested on: MALME-3M melanoma
# SN12C renal = tested on: SN12C renal
# SF-539 CNS = tested on: SF-539 CNS
# COLO 205 colon = tested on: COLO 205 colon
# DMS 114 small cell lung = tested on: DMS 114 small cell lung
# HCT-15 colon = tested on: HCT-15 colon
# A498 renal = tested on: A498 renal
# XF 498 CNS = tested on: XF 498 CNS
# MOLT-4 leukemia = tested on: MOLT-4 leukemia
# K-562 leukemia = tested on: K-562 leukemia
# CCRF-CEM leukemia = tested on: CCRF-CEM leukemia
# TK-10 renal = tested on: TK-10 renal
# LOX IMVI melanoma = tested on: LOX IMVI melanoma
# HL-60(TB) leukemia = tested on: HL-60(TB) leukemia
# NCI-H522 lung = tested on: NCI-H522 lung
smiles,measurement,setting,value
C/C(=N/Nc1ccc([N+](=O)[O-])cc1[N+](=O)[O-])C(CC(C(=O)NCc1ccccc1)/C(C)=N\Nc1ccc([N+](=O)[O-])cc1[N+](=O)[O-])C(=O)NCc1ccccc1 (centres undefined),TGI,A549 NSCLC,14.6 µM
same,TGI,SW-620 colon,24.4 µM
same,TGI,DMS 273 small cell lung,20.4 µM
same,TGI,SK-MEL-28 melanoma,22.4 µM
same,TGI,RXF-631 renal,20 µM
same,TGI,KM12 colon,15 µM
same,TGI,M14 melanoma,21.9 µM
same,TGI,SR leukemia,35.7 µM
same,TGI,SF-295 CNS,18.2 µM
same,TGI,CAKI-1 renal,20.4 µM
same,TGI,HOP-62 NSCLC,13.9 µM
same,TGI,ACHN renal,17.4 µM
same,TGI,OVCAR-3 ovarian,24.5 µM
same,TGI,UACC-62 melanoma,28.4 µM
same,TGI,M19-MEL melanoma,23.9 µM
same,TGI,RPMI-8226 leukemia,44.8 µM
same,TGI,OVCAR-5 ovarian,56.6 µM
same,TGI,HCC-2998 colon,33.9 µM
same,TGI,OVCAR-8 ovarian,4.73 µM
same,TGI,786-0 renal,13.1 µM
same,TGI,SK-OV-3 ovarian,29.1 µM
same,TGI,SNB-19 CNS,31 µM
same,TGI,U251 CNS,11.1 µM
same,TGI,KM20L2 colon,37.5 µM
same,TGI,HOP-18 NSCLC,9.48 µM
same,TGI,IGROV1 ovarian,31 µM
same,TGI,UACC-257 melanoma,18 µM
same,TGI,SNB-75 CNS,12.4 µM
same,TGI,EKVX NSCLC,32.9 µM
same,TGI,HT29 colon,18.5 µM
same,TGI,NCI-H23 lung,28.7 µM
same,TGI,HOP-92 NSCLC,7.98 µM
same,TGI,RXF 393 renal,15 µM
same,TGI,LXFL 529 NSCLC,23.6 µM
same,TGI,NCI-H226 lung,25.8 µM
same,TGI,SNB-78 CNS,31 µM
same,TGI,SF-268 CNS,16.5 µM
same,TGI,NCI-H460 lung,17.5 µM
same,TGI,SK-MEL-2 melanoma,23.9 µM
same,TGI,HCT-116 colon,16.4 µM
same,TGI,OVCAR-4 ovarian,5.59 µM
same,TGI,DLD-1 colon,29.4 µM
same,TGI,UO-31 renal,14.2 µM
same,TGI,MALME-3M melanoma,30.8 µM
same,TGI,SN12C renal,15.1 µM
same,TGI,SF-539 CNS,14.9 µM
same,TGI,COLO 205 colon,27.8 µM
same,TGI,DMS 114 small cell lung,23.8 µM
same,TGI,HCT-15 colon,26 µM
same,TGI,A498 renal,30.5 µM
CN(C)CCn1c2c3ccccc3ccc2c2oc(=O)c3ccccc3c21,TGI,A549 NSCLC,15.3 µM
same,TGI,SW-620 colon,32.4 µM
same,TGI,SK-MEL-28 melanoma,18.4 µM
same,TGI,RXF-631 renal,31.5 µM
same,TGI,KM12 colon,37 µM
same,TGI,M14 melanoma,19.1 µM
same,TGI,XF 498 CNS,30.1 µM
same,TGI,SF-295 CNS,20.8 µM
same,TGI,CAKI-1 renal,25.9 µM
same,TGI,HOP-62 NSCLC,28.3 µM
same,TGI,ACHN renal,18.4 µM
same,TGI,OVCAR-3 ovarian,16.9 µM
same,TGI,UACC-62 melanoma,71 µM
same,TGI,M19-MEL melanoma,25 µM
same,TGI,RPMI-8226 leukemia,43.2 µM
same,TGI,OVCAR-5 ovarian,90.4 µM
same,TGI,786-0 renal,7.14 µM
same,TGI,MOLT-4 leukemia,7.25 µM
same,TGI,K-562 leukemia,> 100 µM
same,TGI,SK-OV-3 ovarian,7.35 µM
same,TGI,SNB-19 CNS,29.4 µM
same,TGI,U251 CNS,20 µM
same,TGI,KM20L2 colon,33.8 µM
same,TGI,HOP-18 NSCLC,35.3 µM
same,TGI,IGROV1 ovarian,55.5 µM
same,TGI,UACC-257 melanoma,16.4 µM
same,TGI,CCRF-CEM leukemia,> 100 µM
same,TGI,SNB-75 CNS,9.94 µM
same,TGI,EKVX NSCLC,36.4 µM
same,TGI,HT29 colon,16.6 µM
same,TGI,NCI-H23 lung,18.9 µM
same,TGI,HOP-92 NSCLC,17.6 µM
same,TGI,TK-10 renal,25.1 µM
same,TGI,LXFL 529 NSCLC,17.2 µM
same,TGI,SNB-78 CNS,48.1 µM
same,TGI,SF-268 CNS,7.86 µM
same,TGI,NCI-H460 lung,13.4 µM
same,TGI,SK-MEL-2 melanoma,35 µM
same,TGI,HCT-116 colon,29.1 µM
same,TGI,OVCAR-4 ovarian,28.1 µM
same,TGI,DLD-1 colon,> 100 µM
same,TGI,UO-31 renal,8.94 µM
same,TGI,LOX IMVI melanoma,27.7 µM
same,TGI,MALME-3M melanoma,26.3 µM
same,TGI,SF-539 CNS,7.1 µM
same,TGI,COLO 205 colon,> 100 µM
same,TGI,HL-60(TB) leukemia,> 100 µM
same,TGI,HCT-15 colon,46.9 µM
same,TGI,NCI-H522 lung,27.6 µM
